This is an account of results in patent publication US6225334A (priority 1996, dated 2001).

Structures are written as SMILES. Read-outs that look alike come from different tables or passages of the source.

One data set in a line: logP (HPLC). Type of data set: physicochemical.
A further data set has as its system Plasmopara viticola. Kind of data set: Plasmopara-Test (Grapevines)/protective. Type of data set: in vivo. Conditions: application rate of 50 g/ha, 6 days after the inoculation, protective.
In data set [1] the test system is beet army-worm (Spodoptera frugiperda). In words: Spodoptera test. The class given is in vivo. Conditions: 216 h, active compound concentration of 0.05%, after 9 days, larvae L2-L3 on synthetic feed, read-out: kill. The protocol:
100 parts by weight of acetone
1900 parts by weight of methanol
A stated amount of the preparation of active compound of the desired concentration is pipetted onto a standardized amount of synthetic feed. In 3 replications, one larva (L2 -L3) each of the beet army-worm (Spodoptera frugiperda) is placed on the feed.
After the desired period of time, the kill in % is determined.

Another data set deals with Phytophthora infestans. The class given is in vivo. Conditions: 3 days after the inoculation, tomato, protective.
Data set [2] has as its system greenhouse red spider mite (Tetranychus urticae). Kind of data set: Tetranychus-Test (OP-resistant/dip treatment). Conditions: 168 h, read-out: kill.
Method: 7.5 parts by weight of dimethylformamide
100 parts by weight of methanol
Emulsifier: 2.5 parts by weight of alkylaryl polyglycol ether
After the desired period of time, the activity in % is determined. 100% means that all spider mites have been killed; 0% means that none of the spider mites have been killed.
The mark [3] stands for this setting: first of two values printed (x/y).

The chromatographic logP is lipophilicity estimated from chromatographic retention. Low readings indicate lower lipophilicity, high ones higher lipophilicity. Consider `COc1ccc(CCNC(=O)C(=NOC(=O)c2ccccc2)c2ccc3c(c2)CCCC3)cc1OC` [Example I-7], for which the chromatographic logP in “logP (HPLC)” (setting [3]) was determined as 3.69; in the data set “logP (HPLC)” (second of two values) it was 4.1.
Turning to `CON=C(C(=S)NCCc1ccc(OC)c(OC)c1)c1ccc(Br)cc1` [II-6], the chromatographic logP in “logP (HPLC)” (setting [3]) turned out to be 3.5; in the data set “logP (HPLC)” (second of two values), 3.8. Also, in the data set on Plasmopara viticola, the “efficacy compared to the untreated control” value is given as 89%.
Consider `COc1ccc(CCNC(=O)C(=NOC(=O)OC2CCCCC2)c2ccc3c(c2)CCCC3)cc1OC` [Example I-6], for which the chromatographic logP worked out at 4.2 in “logP (HPLC)” (setting [3]) and 4.62 in the data set “logP (HPLC)” (second of two values).
In the case of `CCOC(=O)ON=C(C(=O)NCCc1ccc(OC)c(OC)c1)c1ccc(CC)cc1` [Example I-15], in the data set “logP (HPLC)” (single value given), the chromatographic logP was found to be 2.98.
Turning to `COC(=O)ON=C(C(=O)NCCc1ccc(OC)c(OC)c1)c1ccc2c(c1)CCC2` [Example I-11], the chromatographic logP in the data set “logP (HPLC)” (setting [3]) stood at 2.78; in the data set “logP (HPLC)” (second of two values) it was 2.97.
Consider `CCON=C(C(=S)NCCc1ccc(OC)c(OC)c1)c1ccc(Br)cc1` [II-5], for which the values for the chromatographic logP in “logP (HPLC)” (setting [3]) and in “logP (HPLC)” (second of two values) were 3.82 and 4.14, respectively.
In the case of `CCON=C(C(=O)NCCc1ccc(OC)c(OC)c1)c1ccc2c(c1)Cc1ccccc1C2` [Example IV-1], the chromatographic logP in the data set “logP (HPLC)” (e isomer) was found to be 3.62; in “logP (HPLC)” (z isomer), 4.
In the case of `COc1ccc(CCNC(=O)C(=NOC(=O)Oc2ccccc2)c2ccc3c(c2)CCCC3)cc1OC` [Example I-5], the chromatographic logP in “logP (HPLC)” (setting [3]) is 3.82; in the data set “logP (HPLC)” (second of two values), 4.09.
For `CCON=C(C(=S)NCCc1ccc(OC)c(OC)c1)c1ccc2c(c1)CCC2` [II-10] the same measures were 3.87 and 4.13.
As to `CCc1ccc(C(=NOC)C(=S)NCCc2ccc(OC)c(OC)c2)cc1` [II-4], the figures for the chromatographic logP in “logP (HPLC)” (setting [3]) and in “logP (HPLC)” (second of two values) were 3.5 and 3.77, respectively. For the same molecule, in data set [1], the mortality at 0.05 % is 100%.
Turning to `CCOC(=O)ON=C(C(=O)NCCc1ccc(OC)c(OC)c1)c1ccc2c(c1)CCC2` [Example I-13], the chromatographic logP was found to be 3.04 in the data set “logP (HPLC)” (setting [3]) and 3.27 in “logP (HPLC)” (second of two values).
For `COc1ccc(CCNC(=O)C(=NOC(C)=O)c2ccc3c(c2)CCCC3)cc1OC` [Example I-1, N-[(3,4-dimethoxyphenyl)-2-ethyl]-2-acetoxyimino-2-(2-tetrahydronaphthyl)-acetamide], the “efficacy compared to the untreated control” value in the data set on Phytophthora infestans (application rate of 50 g/ha) turned out to be 95%.
In the case of `CCON=C(C(=S)NCCc1ccc(OC)c(OC)c1)c1ccc2c(c1)CCCC2` [II-2], the chromatographic logP came out at 4.13 in “logP (HPLC)” (setting [3]) and 4.41 in the data set “logP (HPLC)” (second of two values).
For `CON=C(C(=O)NCCc1ccc(OC)c(OC)c1)c1ccc2c(c1)OCC2` [III-2] the same measures were 2.24 and 2.46.
Take `CCc1ccc(C(=NOC(=O)OC)C(=O)NCCc2ccc(OC)c(OC)c2)cc1` [Example I-14]: the chromatographic logP in “logP (HPLC)” (setting [3]) amounted to 2.73; in the data set “logP (HPLC)” (second of two values), 2.94. Besides, in data set [2], the mortality at 0.05 % worked out at 100%.
Turning to `CCON=C(C(=S)NCCc1ccc(OC)c(OC)c1)c1ccc(Cl)cc1` [Example II-1, N-[2-(3,4-dimethoxyphenyl)-ethyl]-2-ethoximino-2-(4-chlorophenyl)-thioacetamide], the chromatographic logP in “logP (HPLC)” (e isomer) was 3.73; in “logP (HPLC)” (z isomer), 4.03.
Taken in the same sequence, the figures for `CCON=C(C(=O)NCCc1ccc(OC)c(OC)c1)c1ccc(Cl)cc1` [Example II-II-1] were 3.07 and 3.34.
For the molecule `CCON=C(C(=O)NCCc1ccc(OC)c(OC)c1)c1ccc2c(c1)OCC2` [Example III-1, N-[2-(3,4dimethoxyphenyl)-ethyl]-2-(2,3-dihydrobenzofuran-6-yl)2-ethoximino-acetamide], the “efficacy compared to the untreated control” value in the data set with Phytophthora infestans (application rate of 500 g/ha) was determined as 95%.
Consider `COc1ccc(CCNC(=O)C(=NOC(=O)OC(C)C)c2ccc3c(c2)CCCC3)cc1OC` [Example I-4], for which the chromatographic logP in “logP (HPLC)” (setting [3]) amounted to 3.55; in the data set “logP (HPLC)” (second of two values), 3.84.
In the case of `CON=C(C(=O)NCCc1ccc(OC)c(OC)c1)c1ccc2c(c1)Cc1ccccc1C2` [IV-4], the chromatographic logP in the data set “logP (HPLC)” (setting [3]) was determined as 3.31; in “logP (HPLC)” (second of two values) it was 3.68.
`CON=C(C(=O)NCCc1ccc(OC)c(OC)c1)c1ccc2c(c1)CCc1ccccc1C2` [IV-2]: the figures for the chromatographic logP in the data set “logP (HPLC)” (setting [3]) and in the data set “logP (HPLC)” (second of two values) were 3.61 and 3.87, respectively. For the same molecule, the “efficacy compared to the untreated control” value in the data set on Phytophthora infestans (application rate of 50 g/ha) was found to be 96%.
As for `CCOC(=O)ON=C(C(=O)NCCc1ccc(OC)c(OC)c1)c1ccc2c(c1)CCCC2` [Example I-3], the chromatographic logP in the data set “logP (HPLC)” (setting [3]) was found to be 3.19; in the data set “logP (HPLC)” (second of two values) it was 3.55.
On to `CCON=C(C(=O)NCCc1ccc(OC)c(OC)c1)c1ccc2c(c1)CCc1ccccc1C2` [IV-3], for which the results for the chromatographic logP in “logP (HPLC)” (setting [3]) and in the data set “logP (HPLC)” (second of two values) were 3.91 and 4.2, respectively. For the same molecule, in the data set with Phytophthora infestans (application rate of 50 g/ha), the “efficacy compared to the untreated control” value is reported as 96%.
`COc1ccc(CCNC(=O)C(=NOC(C)=O)c2ccc3c(c2)CCC3)cc1OC` [Example I-12]: the chromatographic logP is 2.65 in “logP (HPLC)” (setting [3]) and 2.87 in the data set “logP (HPLC)” (second of two values).
Consider `CON=C(C(=S)NCCc1ccc(OC)c(OC)c1)c1ccc(C)cc1` [II-3], for which the chromatographic logP in the data set “logP (HPLC)” (setting [3]) turned out to be 3.15; in “logP (HPLC)” (second of two values) it was 3.41.
In turn, `CCOC(=O)ON=C(C(=O)NCCc1ccc(OC)c(OC)c1)c1ccc(Br)cc1` [Example I-10] returned a chromatographic logP in the data set “logP (HPLC)” (single value given) of 3.19.
Regarding `CCON=C(C(=S)NCCc1ccc(OC)c(OC)c1)c1cccc(CC)c1` [II-8], the figures for the chromatographic logP in the data set “logP (HPLC)” (setting [3]) and in the data set “logP (HPLC)” (second of two values) were 3.82 and 4.09, respectively.
For `CCc1ccc(C(=NOC(C)=O)C(=O)NCCc2ccc(OC)c(OC)c2)cc1` [Example I-16] the same measures were 2.42 and 2.6.
